The test system of assay [1] is cysteamine induced duodenal ulcers. The assay can be described thus: Healing of cysteamine-induced perforating duodenal ulcers, therapy in drinking water for 50 days (Example 1). The assay is classed as in vivo. As to conditions: rats, 50 days therapy from day 7 after cysteamine, urogastrone 6 μg./rat/day, cimetidine 100 mg./rat/day; for Healed (number of healed ulcers) / Unhealed (number of unhealed ulcers): n 15. As for the experimental part:
Rats with perforating duodenal ulcers confirmed by laparotomy were selected from a large number and given two doses of cysteamine as described in the following protocol. These animals were randomly assigned to treatment groups of 15 rats each. The protocol utilises 2 doses of cysteamine (300 mg./kg. and 150 mg./kg., 6 hours apart). This procedure produces deep perforating duodenal ulcers in a majority of the rats injected. The "chronic" ulcers heal extremely slowly. Previous studies have shown that after 50 days only 20% have healed as judged by reepithelialization of the surface. Even after 200 days, 36% remain unhealed. In order to provide for a reliable experimental protocol, rats given 2 doses of cysteamine are subjected to an intra-abdominal inspection by laparotomy 5 days after induction. Only those rats in which perforation of the ulcer to the duodenal external serosal surface has occurred are included in the experimental groups. Rats with non-perforating ulcers are discarded. Therapy by drug or placebo then begins on day 7 post-induction.On termination after a standardised period of (21 to 50 days) therapy the duodenum is removed from all rats, fixed and stained with PAS and the number of healed and unhealed ulcers determined by macroscopic examination of the mucosal surface with a stereomicroscope. Healing is defined as restoration of complete mucosal integrity by reepithelialisation of the surface. This is confirmed by subsequent histology. In this example, therapy commenced on day 7 following cysteamine and continued for 50 days.

Assay [2] has the same test system. The assay can be described thus: Healing of cysteamine-induced duodenal ulcers, therapy by oral gavage for 21 days, assessed blind by 2 observers (Example 2). Type of assay: in vivo. To be noted: rats, 10 μg./rat/dose by oral gavage three times a day. As for the experimental part: The protocol utilises 2 doses of cysteamine (300 mg./kg. and 150 mg./kg., 6 hours apart).
In order to provide for a reliable experimental protocol, rats given 2 doses of cysteamine are subjected to an intra-abdominal inspection by laparotomy 5 days after induction. Only those rats in which perforation of the ulcer to the duodenal external serosal surface has occurred are included in the experimental groups. Rats with non-perforating ulcers are discarded. Therapy by drug or placebo then begins on day 7 post-induction.On termination after a standardised period of (21 to 50 days) therapy the duodenum is removed from all rats, fixed and stained with PAS and the number of healed and unhealed ulcers determined by macroscopic examination of the mucosal surface with a stereomicroscope. Healing is defined as restoration of complete mucosal integrity by reepithelialisation of the surface.
In this Example the same protocol was followed as in Example 1 but therapy was continued for only 21 days after commencing on day 7 following ulcer induction.

Assay [3] has as its system gastric acid secretion. The assay can be described thus: Histamine stimulated acid secretion in beagle dogs with Heidenhain pouches (Example 3). As to conditions: Heidenhain pouch dogs; for effect on acid secretion, intravenous administration: intravenously administered. The assay is classed as in vivo, dog. As for the experimental part:
Male beagle dogs (14-22 kg.) were prepared with isolated Heidenhain (vagal denervated) pouches derived from the fundic area of the stomach by the method of Rudick et al, J. Surg. Res. 7: 383, 1967. Animals were allowed 4-6 weeks to recover from surgery and given a 2-3 month training period to standardise laboratory behaviour and secretory responses. The dogs were fasted for 23 hours prior to use, the pouch then flushed with warm water and histamine infused subcutaneously at a rate of 10 μg./min. Pouch secretions were collected every 15 minutes, their volume measured and aliquots titrated to pH 7.0 with 100 mM NaOH.

Assay [4] deals with gastrointestinal epithelial proliferation. The assay can be described thus: Crypt cell production rate of gastrointestinal epithelium in rats on total parenteral nutrition (Example 4). The assay is classed as in vivo, rat. To be noted: intragastric infusion of similar or much larger doses than i.v.
Method: These animals have permanent indwelling i.v. catheters connected to infusion pumps via 360° swivel joints which allow normal mobility of the rats within their cages. A complete parenteral food mixture is infused through the catheters at a rate of 60 ml./rat/24 h. The animals are allowed water in the normal way but no food by mouth.
Epithelial cell turnover in these experiments was determined as the crypt cell production rate (CCPR) at each site examined. CCPR was defined as the number of new cells produced per mucosal crypt per hour (for method of determination see Al Nafussi and Wright, Virch. Arch. Cell Pathol. 40: 63, 1982).
Infusion was continued for 10 days.
The subject of assay [5] is acid secretion in the stomach. As to conditions: administered by a systemic route; cited from earlier work.
The subject of assay [6] is gastric acid secretion. To be noted: administered intravenously to animals; cited from earlier work.
The subject of a further assay is gastrointestinal mucosa. To be noted: administered concurrently with or prior to the injurious stimuli; cited from earlier work.

As for `CN/C(=N/CCSCc1nc[nH]c1C)NC#N` [Cimetidine, reference compound], in assay [1], the “Percentage Rate (healed)” value was 40%, the “Healed (number of healed ulcers)” value was 6 and the “Unhealed (number of unhealed ulcers)” value is on record as 9.

For “Urogastrone: active form of human urogastrone, polypeptide hormone of 53 amino acids; recombinant derived, produced by microbial methods”, in assay [1], the “Percentage Rate (healed)” value is reported as 43%, the “Healed (number of healed ulcers)” value was found to be 6 and the “Unhealed (number of unhealed ulcers)” value is 8. Also, in assay [2], the “Percentage healed, observer (1)” value is 36% and the “Percentage healed, observer (2)” value is listed as 23%. Besides, in assay [2] (n 22), the “Healed, observer (1)” value was 8; the “Unhealed, observer (1)” value is 14; the “Unhealed, observer (2)” value is 17. Also, the “time to peak inhibition of the acid secretion response to histamine” value in the assay on gastric acid secretion [3] (after intravenous bolus injection) was at most 30 min. The “dose required to produce a 50% inhibition of acid secretion” value in the assay on gastric acid secretion [3] (intravenous bolus dose, histamine 10 μg./min s.c., from log-linear dose response regression plots) was determined as 0.27 µg/kg. Besides, in the assay on gastric acid secretion [3], the “effect on acid secretion, intravenous administration” value is on record as “inhibited acid secretion”. Besides, the “effect on acid secretion, oral administration” value in the assay with gastric acid secretion [3] (single oral solution dose, even at 4 mg. (approximately 200 μg./kg.)) is recorded as “no effect on acid secretion”. Also, the “effect on gastrointestinal epithelial proliferation, intragastric infusion” value in assay [4] is recorded as “no effect”. The “inhibition of acid secretion in the stomach of humans” value in assay [5] is “inhibit acid secretion”. Moreover, the “activity in inhibiting acid secretion, beta- versus gamma-urogastrone” value in the assay with gastric acid secretion [6] is recorded as “equal activity”. In addition, the “protection of the gastrointestinal mucosa against damaging stimuli and ulcer formation” value in the assay with gastrointestinal mucosa is listed as “protect the gastrointestinal mucosa”.

“gamma-urogastrone: 52 amino acid form that differs from beta-urogastrone only in lacking the carboxy-terminal arginine residue (NSDSECPLSHDGYCLHDGVCMYIEALDKYACNCVVGYIGERCQYRDLKWWEL; Epidermal growth factor; UniProt P01133 971-1022, looked up, fragment)”: in the assay on gastric acid secretion [6], the “activity in inhibiting acid secretion, beta- versus gamma-urogastrone” value is “equal activity”.

For “mEGF: epidermal growth factor from mouse salivary glands, polypeptide of 53 amino acids resembling beta-urogastrone (NSYPGCPSSYDGYCLNGGVCMHIESLDSYTCNCVIGYSGDRCQTRDLRWWELR; Epidermal growth factor; UniProt P01132 977-1029, looked up) [reference compound]”, the “effect on acid secretion, intravenous administration” value in the assay on gastric acid secretion [3] is reported as “inhibited acid secretion”. Besides, in the assay with gastrointestinal mucosa, the “protection of the gastrointestinal mucosa against damaging stimuli and ulcer formation” value is recorded as “protect the gastrointestinal mucosa”.

(Values after US4820690A (G. D. Searle & Co., priority 1984, dated 1989).)
